Source: patent publication US20230123654A1 (priority 2020, published 2023)
Several values for one entry are separate records, joined by “and”; a condition that tells them apart may be missing. Identical values can stand only once. Like-named read-outs stand apart in the source and are kept apart here.

Experiments:
[1] = system: Nav1.5 transfected cells (CHO); type: cell-based, Chinese hamster
[2] = target: T1, Nav1.5 (Homo sapiens, UniProt Q14524); type: cell-based
[3] = system: rat diaphragm muscle; also: test concentration or dose not given here
[4] = target: Nav1.4 DIV-S6 peptide ([…]) (Homo sapiens, UniProt P35499); type: binding
[5] = target: T2, Nav1.4 (Homo sapiens, UniProt P35499); type: cell-based; as to Mean block of INa: test concentration or dose not given here
[6] = system: Nav; settings: cited from earlier work
[7] = system: Nav1.5 transfected cells (CHO)
[8] = target: T1, Nav1.5; type: cell-based; remark: listed apart in the source
[9] = target: Nav1.4 F1586A (Homo sapiens, UniProt P35499, F1586A); type: cell-based; as to Mean block of INa: test concentration or dose not given here
[10] = system: gramicidin-HEK cells; type: cell-based, human
[11] = target: Nav1.4 WWWW (Homo sapiens, UniProt P35499, F432W/I1280W/I1583W/V787W); type: cell-based; also: test concentration or dose not given here
[12] = system: gramicidin containing DC22:1PC LUVs
[13] = target: Nav1.5 (SCN5A) (Homo sapiens, UniProt Q14524); type: cell-based
[14] = target: Nav1.1 pore-mutant (F1763A-LA mutant) (Homo sapiens, UniProt P35498, F1774A); settings: cited from earlier work
[15] = target: T2, Nav1.4; type: cell-based; remark: listed apart in the source
[16] = target: T1, Nav1.5
[17] = target: Nav1.4 P1158S (Homo sapiens, UniProt P35499, P1158S); type: cell-based
[18] = target: T1, Nav1.5; type: cell-based; remark: listed apart in the source
[19] = target: T1, Nav1.5; type: cell-based; remark: listed apart in the source
[20] = target: T2, Nav1.4; settings: read-out: resting IC50 on Nav1.4; cited from earlier work
[21] = target: T1, Nav1.5; type: cell-based; remark: listed apart in the source
[22] = system: TTX-sensitive channels; settings: cited from earlier work

Nav1.4 F1586A, sequence (P35499 whole entry F1586A, looked up): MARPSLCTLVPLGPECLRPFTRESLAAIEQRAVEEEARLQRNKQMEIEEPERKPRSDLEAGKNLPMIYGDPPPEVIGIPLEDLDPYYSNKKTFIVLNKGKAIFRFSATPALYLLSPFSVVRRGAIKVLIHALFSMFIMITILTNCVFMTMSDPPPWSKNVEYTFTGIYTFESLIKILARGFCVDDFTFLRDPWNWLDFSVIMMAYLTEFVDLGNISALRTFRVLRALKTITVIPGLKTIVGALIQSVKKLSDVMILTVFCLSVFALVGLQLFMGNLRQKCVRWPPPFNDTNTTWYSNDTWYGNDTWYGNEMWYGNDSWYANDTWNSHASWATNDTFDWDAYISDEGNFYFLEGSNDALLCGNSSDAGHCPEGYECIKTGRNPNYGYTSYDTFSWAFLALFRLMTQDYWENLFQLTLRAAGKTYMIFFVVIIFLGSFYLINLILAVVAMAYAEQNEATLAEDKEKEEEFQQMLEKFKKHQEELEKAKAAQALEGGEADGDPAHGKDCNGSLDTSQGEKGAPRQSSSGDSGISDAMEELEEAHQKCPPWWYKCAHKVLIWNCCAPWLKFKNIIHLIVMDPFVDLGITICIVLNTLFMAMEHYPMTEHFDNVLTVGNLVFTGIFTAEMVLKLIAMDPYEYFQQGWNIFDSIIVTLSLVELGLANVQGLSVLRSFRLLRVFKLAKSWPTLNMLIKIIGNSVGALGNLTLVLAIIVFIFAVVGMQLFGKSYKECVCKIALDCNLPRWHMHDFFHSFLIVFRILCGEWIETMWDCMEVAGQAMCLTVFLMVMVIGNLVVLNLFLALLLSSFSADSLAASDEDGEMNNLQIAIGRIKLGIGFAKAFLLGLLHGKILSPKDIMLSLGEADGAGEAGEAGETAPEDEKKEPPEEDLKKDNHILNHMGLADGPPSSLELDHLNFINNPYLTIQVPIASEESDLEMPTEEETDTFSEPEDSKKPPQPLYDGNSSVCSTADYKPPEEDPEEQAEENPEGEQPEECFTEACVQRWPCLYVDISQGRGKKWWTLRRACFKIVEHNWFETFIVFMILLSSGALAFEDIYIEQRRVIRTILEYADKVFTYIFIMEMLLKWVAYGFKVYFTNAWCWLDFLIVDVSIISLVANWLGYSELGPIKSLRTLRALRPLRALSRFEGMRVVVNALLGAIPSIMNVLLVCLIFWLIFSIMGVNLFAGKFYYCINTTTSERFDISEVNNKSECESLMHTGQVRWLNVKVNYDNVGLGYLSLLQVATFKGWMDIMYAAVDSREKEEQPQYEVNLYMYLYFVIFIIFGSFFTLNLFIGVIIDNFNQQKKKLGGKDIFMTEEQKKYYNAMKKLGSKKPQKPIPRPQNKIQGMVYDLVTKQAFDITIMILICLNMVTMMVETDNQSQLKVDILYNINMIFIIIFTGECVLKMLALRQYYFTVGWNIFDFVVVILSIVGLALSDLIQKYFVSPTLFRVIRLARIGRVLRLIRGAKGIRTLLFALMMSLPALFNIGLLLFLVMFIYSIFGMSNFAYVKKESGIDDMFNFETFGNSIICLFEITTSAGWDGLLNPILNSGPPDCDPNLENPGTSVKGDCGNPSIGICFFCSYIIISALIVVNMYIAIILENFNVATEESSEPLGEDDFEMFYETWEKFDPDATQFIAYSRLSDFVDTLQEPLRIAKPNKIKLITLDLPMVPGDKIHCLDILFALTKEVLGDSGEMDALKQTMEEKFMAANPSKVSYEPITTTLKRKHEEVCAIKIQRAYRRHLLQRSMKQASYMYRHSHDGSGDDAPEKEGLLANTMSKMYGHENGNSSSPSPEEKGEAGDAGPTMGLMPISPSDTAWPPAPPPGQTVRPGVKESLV
Nav1.4 P1158S, sequence (P35499 whole entry P1158S, looked up): as the sequence (P35499 whole entry F1586A, looked up) above, with P1158S, A1586F counted along it
T2 sequence (P35499 whole entry, looked up): as the sequence (P35499 whole entry F1586A, looked up) above, with A1586F counted along it
T1 sequence (Q14524 whole entry): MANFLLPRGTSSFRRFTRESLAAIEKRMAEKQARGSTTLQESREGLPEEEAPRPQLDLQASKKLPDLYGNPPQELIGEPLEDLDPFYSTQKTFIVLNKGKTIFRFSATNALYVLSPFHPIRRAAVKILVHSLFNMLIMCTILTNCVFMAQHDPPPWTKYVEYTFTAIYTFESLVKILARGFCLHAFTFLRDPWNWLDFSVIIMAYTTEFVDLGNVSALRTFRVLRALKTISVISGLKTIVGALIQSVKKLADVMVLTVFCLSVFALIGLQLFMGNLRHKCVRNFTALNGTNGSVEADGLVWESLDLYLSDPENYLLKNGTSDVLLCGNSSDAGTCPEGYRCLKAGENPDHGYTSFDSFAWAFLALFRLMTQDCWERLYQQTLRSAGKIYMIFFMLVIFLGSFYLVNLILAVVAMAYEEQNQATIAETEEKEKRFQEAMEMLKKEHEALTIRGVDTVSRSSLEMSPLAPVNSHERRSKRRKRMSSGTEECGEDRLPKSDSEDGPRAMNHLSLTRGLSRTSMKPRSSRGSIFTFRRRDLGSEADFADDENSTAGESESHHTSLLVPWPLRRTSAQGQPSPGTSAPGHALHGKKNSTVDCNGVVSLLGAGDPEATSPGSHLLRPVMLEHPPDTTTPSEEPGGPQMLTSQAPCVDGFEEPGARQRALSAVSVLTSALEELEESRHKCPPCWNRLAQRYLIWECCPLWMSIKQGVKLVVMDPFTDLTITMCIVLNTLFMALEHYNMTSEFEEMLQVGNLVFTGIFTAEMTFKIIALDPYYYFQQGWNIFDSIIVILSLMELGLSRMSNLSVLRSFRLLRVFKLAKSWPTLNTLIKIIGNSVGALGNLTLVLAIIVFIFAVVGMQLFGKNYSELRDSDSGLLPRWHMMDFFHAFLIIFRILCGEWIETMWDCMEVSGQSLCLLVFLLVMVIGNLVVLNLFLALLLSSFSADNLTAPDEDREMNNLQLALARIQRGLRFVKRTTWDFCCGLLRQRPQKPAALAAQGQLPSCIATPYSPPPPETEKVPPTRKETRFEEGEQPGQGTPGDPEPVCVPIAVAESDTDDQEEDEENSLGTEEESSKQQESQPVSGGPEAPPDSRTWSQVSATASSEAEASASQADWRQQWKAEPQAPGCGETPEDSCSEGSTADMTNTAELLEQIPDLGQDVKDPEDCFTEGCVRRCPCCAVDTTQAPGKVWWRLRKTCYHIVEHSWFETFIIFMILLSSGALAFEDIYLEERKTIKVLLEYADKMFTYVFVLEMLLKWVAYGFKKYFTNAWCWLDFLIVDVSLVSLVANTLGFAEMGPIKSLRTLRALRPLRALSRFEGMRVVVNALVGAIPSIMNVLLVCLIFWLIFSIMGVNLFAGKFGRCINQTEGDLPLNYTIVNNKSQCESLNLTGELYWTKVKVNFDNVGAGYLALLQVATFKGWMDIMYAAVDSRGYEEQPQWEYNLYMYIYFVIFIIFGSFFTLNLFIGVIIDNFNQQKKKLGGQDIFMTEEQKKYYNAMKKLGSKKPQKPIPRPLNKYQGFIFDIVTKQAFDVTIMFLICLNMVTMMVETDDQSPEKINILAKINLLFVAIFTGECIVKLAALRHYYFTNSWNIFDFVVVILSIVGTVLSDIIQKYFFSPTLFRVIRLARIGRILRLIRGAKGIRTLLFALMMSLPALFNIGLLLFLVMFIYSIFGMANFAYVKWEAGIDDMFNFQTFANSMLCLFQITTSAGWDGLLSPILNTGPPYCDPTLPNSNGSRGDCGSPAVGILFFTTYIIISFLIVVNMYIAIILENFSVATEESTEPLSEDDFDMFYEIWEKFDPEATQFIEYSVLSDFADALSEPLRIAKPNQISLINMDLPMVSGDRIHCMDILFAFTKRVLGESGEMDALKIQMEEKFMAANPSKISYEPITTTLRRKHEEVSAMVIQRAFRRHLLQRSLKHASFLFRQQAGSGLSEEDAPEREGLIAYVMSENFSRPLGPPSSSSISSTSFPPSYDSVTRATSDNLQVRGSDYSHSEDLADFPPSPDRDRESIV
Nav1.4 WWWW, sequence (P35499 whole entry F432W/V787W/I1280W/I1583W, looked up): as the sequence (P35499 whole entry F1586A, looked up) above, with F432W, V787W, I1280W, I1583W, A1586F counted along it

## C=C(C)[C@@H]1CCC(C)=C[C@H]1c1c(O)cc(CCCCC)cc1O [CANNABIDIOL, 2-[(1R,6R)-3-Methyl-6-(1-methylethenyl)-2-cyclohexen-1-yl]-5-pentyl-1,3-benzenediol]
[1]
  ROS levels at high glucose: complete reduction of ROS levels
[2]
  GV − z (slope): 4.7 ± 0.9 and 3.7 ± 0.6 and 2.8 ± 0.2 and 3.1 ± 0.2
[3]
  contraction amplitude: ~60 % of control
[4]
  peak heat of titration: 1022.2 ± 160.6 kcal/mol
[5]
  Mean block of INa: 42.4±6.4% and ~45%
[6]
  state-dependence in Nav inhibition: approximately 10 fold
[6]; read-out: IC50, inactivated Nav
  IC50: ~1 µM
[6]; read-out: IC50, resting Nav
  IC50: ~10 µM
[7]
  effect on reduction in cell viability at high glucose: attenuated the reduction in cell viability
[8]
  Percentage of persistent INa: 0.93 ± 0.05% and 1.04 ± 0.11% and 0.88 ± 0.07%
[9]
  Mean block of INa: 25.3±4.8% and ~25%
  difference between inhibition of WT vs. F1586A: 1.5 fold
[10]
  gramicidin currents: slightly altered gramicidin currents
[11]
  Mean block of INa: 6.4±1.3%
[12]
  gramicidin signal (fluorescence quench): alters the gramicidin signal
[13]
  activation and steady-state inactivation curves: rescues the activation and steady-state inactivation curves
  late sodium current: indistinguishable from control
[14]
  drop in potency in pore-mutant: ~2.5 fold
[15]
  SSFI V1/2: −72.7±3.0 mV
  SSFI z: −2.8±0.4
  activation V1/2: −14.3±4.2 mV
  activation z: 2.8±0.3
[16]
  Azithromycin-induced late sodium current: the late current was reduced
[17]; pH6.4
  SSFI V1/2: −81.7±2.3 mV
  SSFI z: 2.7±0.3
  activation V1/2: −21.1±3.3 mV
  activation z: 2.5±0.2
  persistent currents, Percentage: 5.4±1.2%
[17]; pH7.4
  SSFI V1/2: −83.0±2.6 mV
  SSFI z: 3.0±0.3
  activation V1/2: −32.7±3.6 mV
  activation z: 2.9±0.2
  persistent currents, Percentage: 1.0±0.2%

## C[C@]12CC[C@@H]3c4ccc(O)cc4CC[C@H]3[C@@H]1CC[C@@H]2O [E2, 17β-Estradiol]
[8]
  Percentage of persistent INa: 0.85 ± 0.06% and 0.91 ± 0.06% and 1.92 ± 0.09% and 0.89 ± 0.06% and 1.73 ± 0.03% and 0.95 ± 0.09% and 0.90 ± 0.11%
[18]
  GV − z (slope): 3.1 ± 0.1 and 3.0 ± 0.1 and 2.4 ± 0.1 and 3.5 ± 0.1 and 2.8 ± 0.1 and 3.6 ± 0.1 and 3.4 ± 0.2

## OC[C@@H](O)[C@@H](O)[C@H](O)[C@H](O)CO [Mannitol, mannitol]
[2]
  GV − V1/2 (Steady state activation): −39.2 ± 1.6 mV
  GV − z (slope): 5.1 ± 0.8
[19]
  SSF[I] − V1/2 (Steady State Fast Inactivation): −93.6 ± 2.3 mV
  SSF[I] − z (slope): −2.1 ± 0.3
[7]
  cell viability, agent alone: no significant effect on the cell viability

## CCN(CC)CC(=O)Nc1c(C)cccc1C [Lidocaine, lidocaine]
[4]
  peak heat of titration: 968.0 ± 23.4 kcal/mol
[5]
  Mean block of INa: 60.6±2.3% and ~60%
[9]
  Mean block of INa: 24.6±9.3% and ~20%
  difference between inhibition of WT vs. F1586A: 3 fold
[20]
  IC50: 1.1 mM
[11]
  Mean block of INa: 53.6±11.7%

## O=C(NCC1CCCCN1)c1cc(OCC(F)(F)F)ccc1OCC(F)(F)F (centres unmarked) [flecainide]
[5]
  Mean block of INa: 64.6±6.0%
[11]
  Mean block of INa: 76.4±11.3%

## Triton X100 [TX100]
[10]
  gramicidin currents: altered the cationic gramicidin currents across all potentials

## CCCCCCCCCCCCCC(=O)O[C@@H]1[C@@H](C)[C@@]2(O)[C@@H](C=C(CO)C[C@]3(O)C(=O)C(C)=C[C@@H]23)[C@@H]2C(C)(C)[C@]12OC(C)=O [PMA]
[21]
  SSFI V1/2: −76.4 ± 1.7 mV
  SSFI − z (slope): −2.9 ± 0.2
[8]
  Percentage of persistent INa: 2.18 ± 0.06%
[18]
  GV − V1/2 (Steady state activation): −22.6 ± 1.6 mV
  GV − z (slope): 2.5 ± 0.1

## NC1=N[C@H](O)[C@H]2[C@H]3O[C@]4(O)O[C@@H]([C@@H](O)[C@@]2(N1)[C@@H]4O)[C@]3(O)CO [TTX, tetrodotoxin]
[3]
  contraction amplitude: ~20 % of control
[22]
  IC50: 10 to 30 nM

## Nc1ncnc2c1nc(Sc1ccc(Cl)cc1)n2[C@@H]1O[C@@H]2COP(=O)([O-])O[C@H]2[C@H]1O.[Na+] [CPT-cAMP, 8-(4-chlorophenylthio) adenosine-3′,5′-cyclic monophosphate]
[21]
  SSFI V1/2: −79.4 ± 1.1 mV
  SSFI − z (slope): −3.0 ± 0.1
[8]
  Percentage of persistent INa: 2.20 ± 0.08%
[18]
  GV − V1/2 (Steady state activation): −25.2 ± 0.5 mV
  GV − z (slope): 2.5 ± 0.1

## CC[C@H]1OC(=O)[C@H](C)[C@@H](O[C@H]2C[C@@](C)(OC)[C@@H](O)[C@H](C)O2)[C@H](C)[C@@H](O[C@@H]2O[C@H](C)C[C@H](N(C)C)[C@H]2O)[C@](C)(O)C[C@@H](C)CN(C)[C@H](C)[C@@H](O)[C@]1(C)O [Azithromycin]
[16]
  late sodium current compared to control: an increase in late sodium current

## CC1(C)CC(O)CC(C)(C)N1[O] [Tempol]
[1]
  ROS levels at high glucose: complete reduction of ROS levels
[2]
  GV − z (slope): 3.9 ± 0.6 and 4.4 ± 0.5 and 2.6 ± 0.2 and 4.0 ± 0.6 and 2.2 ± 0.1 and 4.3 ± 1.0 and 3.4 ± 0.3
[7]
  effect on reduction in cell viability at high glucose: showed similar results to CANNABIDIOL
